Here are results for 14 compounds from patent publication US8574563B2 (Bristol-Myers Squibb Company, priority 2006, dated 2013).

For orientation: EC50 means the concentration at which the effect is half-maximal.

Each structure is given as a SMILES string.

This assay concerns HCV 1b-377-neo replicon cells. The assay is described as follows: HCV replicon assay, HCV 1b-377-neo replicon cells (1b FRET). The class given is cell-based, Hepatitis C virus genotype 1b. As to conditions: Hepatitis C virus, HCV 1b-377-neo replicon cells; HCV 1b genotype; read-out: EC50 range against HCV 1b (Table 2, Range). The method, boiled down: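 Compounds tested in HCV genotype 1b-377-neo replicon cells with a FRET read-out. Cells resistant to a reference NS5A inhibitor through a Y2065H NS5A mutation were run alongside wild-type cells.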
As for `C[C@H](NC(=O)[C@@H](c1ccccc1)N(C)C)c1ncc(-c2cnc(-c3ccc(-c4cnc([C@@H]5CCCN5C(=O)[C@@H](c5ccccc5)N(C)C)[nH]4)cc3)nc2)[nH]1` [Example 152j-16, (2R)-2-(dimethylamino)-N-((1S)-1-(5-(2-(4-(2-((2S)-1-((2R)-2-(dimethylamino)-2-phenylacetyl)-2-pyrrolidinyl)-1H-imidazol-5-yl)phenyl)-5-pyrimidinyl)-1H-imidazol-2-yl)ethyl)-2-phenylacetamide], the concentration for a half-maximal effect (EC50) was 0.001 to 0.999 nM.
The value for `COC(=O)N[C@@H](C(=O)N[C@@H](C)c1ncc(-c2cnc(-c3ccc(-c4cnc([C@@H]5CCCN5C(=O)[C@H](NC(=O)OC)c5ccccc5)[nH]4)cc3)nc2)[nH]1)c1ccccc1` [Example 152j-17, methyl ((1R)-2-((2S)-2-(5-(4-(5-(2-((1S)-1-(((2R)-2-((methoxycarbonyl)amino)-2-phenylacetyl)amino)ethyl)-1H-imidazol-5-yl)-2-pyrimidinyl)phenyl)-1H-imidazol-2-yl)-1-pyrrolidinyl)-2-oxo-1-phenylethyl)carbamate] was 0.001 to 0.999 nM; that for `C[C@H](NC(=O)[C@@H](c1ccccc1)N(C)C)c1ncc(-c2cnc(-c3ccc(-c4cnc([C@@H]5CCCN5C(=O)[C@@H](c5ccccc5)N(C)C)[nH]4)cc3)cn2)[nH]1` [Example 152j-18, (2R)-2-(dimethylamino)-N-((1S)-1-(5-(5-(4-(2-((2S)-1-((2R)-2-(dimethylamino)-2-phenylacetyl)-2-pyrrolidinyl)-1H-imidazol-5-yl)phenyl)-2-pyrazinyl)-1H-imidazol-2-yl)ethyl)-2-phenylacetamide] was 0.001 to 0.999 nM; that for `COC(=O)N[C@@H](C(=O)N[C@@H](C)c1ncc(-c2cnc(-c3ccc(-c4cnc([C@@H]5CCCN5C(=O)[C@H](NC(=O)OC)c5ccccc5)[nH]4)cc3)cn2)[nH]1)c1ccccc1` [Example 152j-19, methyl ((1R)-2-((2S)-2-(5-(4-(5-(2-((1S)-1-(((2R)-2-((methoxycarbonyl)amino)-2-phenylacetyl)amino)ethyl)-1H-imidazol-5-yl)-2-pyrazinyl)phenyl)-1H-imidazol-2-yl)-1-pyrrolidinyl)-2-oxo-1-phenylethyl)carbamate] was 0.001 to 0.999 nM.
On to `COC(=O)N[C@@H](C(=O)N(C)[C@@H](C)c1ncc(-c2ccc(-c3ncc(-c4cnc([C@@H]5CCCN5C(=O)[C@H](NC(=O)OC)c5ccccc5)[nH]4)cn3)cc2)[nH]1)c1ccccc1` [Example 152j-21, methyl ((1R)-2-((2S)-2-(5-(2-(4-(2-((1S)-1-(((2R)-2-((methoxycarbonyl)amino)-2-phenylacetyl)(methyl)amino)ethyl)-1H-imidazol-5-yl)phenyl)-5-pyrimidinyl)-1H-imidazol-2-yl)-1-pyrrolidinyl)-2-oxo-1-phenylethyl)carbamate], for which the EC50 was 0.001 to 0.999 nM.
With `COC(=O)N[C@@H](C(=O)N[C@@H](C)c1ncc(-c2ccc(-c3ccc(-c4cnc([C@@H]5CCCN5C(=O)[C@H](NC(=O)OC)c5ccccc5)[nH]4)cc3)nc2)[nH]1)c1ccccc1` [Example 152j-22, methyl ((1R)-2-((2S)-2-(5-(4-(5-(2-((1S)-1-(((2R)-2-((methoxycarbonyl)amino)-2-phenylacetyl)amino)ethyl)-1H-imidazol-5-yl)-2-pyridinyl)phenyl)-1H-imidazol-2-yl)-1-pyrrolidinyl)-2-oxo-1-phenylethyl)carbamate], the EC50 was 0.001 to 0.999 nM.
The value for `COC(=O)N[C@@H](C(=O)N[C@@H](C)c1ncc(-c2ccc(-c3ccc(-c4cnc([C@H](C)NC(=O)[C@H](NC(=O)OC)c5ccccc5)[nH]4)cn3)cc2)[nH]1)c1ccccc1` [Example 152j-23, methyl ((1R)-2-(((1S)-1-(5-(6-(4-(2-((1S)-1-(((2R)-2-((methoxycarbonyl)amino)-2-phenylacetyl)amino)ethyl)-1H-imidazol-5-yl)phenyl)-3-pyridinyl)-1H-imidazol-2-yl)ethyl)amino)-2-oxo-1-phenylethyl)carbamate] was 0.001 to 0.999 nM; that for `C[C@H](NC(=O)[C@@H](c1ccccc1)N(C)C)c1ncc(-c2ccc(-c3ccc(-c4cnc([C@H](C)NC(=O)[C@@H](c5ccccc5)N(C)C)[nH]4)cn3)cc2)[nH]1` [Example 152j-24, (2R)-2-(dimethylamino)-N-((1S)-1-(5-(6-(4-(2-((1S)-1-(((2R)-2-(dimethylamino)-2-phenylacetyl)amino)ethyl)-1H-imidazol-5-yl)phenyl)-3-pyridinyl)-1H-imidazol-2-yl)ethyl)-2-phenylacetamide] was 0.001 to 0.999 nM.
The value for `COC(=O)N[C@@H](C(=O)N[C@@H](C)c1ncc(-c2ccc(-c3cnc(-c4cnc([C@@H]5CCCN5C(=O)[C@H](NC(=O)OC)c5ccccc5)[nH]4)cn3)cc2)[nH]1)c1ccccc1` [Example 152j-28, methyl ((1R)-2-((2S)-2-(5-(5-(4-(2-((1S)-1-(((2R)-2-((methoxycarbonyl)amino)-2-phenylacetyl)amino)ethyl)-1H-imidazol-5-yl)phenyl)-2-pyrazinyl)-1H-imidazol-2-yl)-1-pyrrolidinyl)-2-oxo-1-phenylethyl)carbamate] was 0.001 to 0.999 nM; that for `COC(=O)N[C@@H](C(=O)N(C)[C@@H](C)c1ncc(-c2ccc(-c3ncc(-c4cnc([C@@H]5CCCN5C(=O)[C@@H](c5ccccc5)N5CCCCC5)[nH]4)cn3)cc2)[nH]1)c1ccccc1` [Example 152l-1, methyl ((1R)-2-(methyl((1S)-1-(4-(4-(5-(2-((2S)-1-((2R)-2-phenyl-2-(1-piperidinyl)acetyl)-2-pyrrolidinyl)-1H-imidazol-5-yl)-2-pyrimidinyl)phenyl)-1H-imidazol-2-yl)ethyl)amino)-2-oxo-1-phenylethyl)carbamate] was 0.001 to 0.999 nM.
For `COC(=O)N[C@@H](C(=O)N[C@@H](C)c1ncc(-c2ccc(-c3ncc(-c4cnc([C@@H]5CCCN5C(=O)[C@@H](c5ccccc5)N5CCCCC5)[nH]4)cn3)cc2)[nH]1)c1ccccc1` [Example 152l-2, methyl ((1R)-2-oxo-1-phenyl-2-(((1S)-1-(4-(4-(5-(2-((2S)-1-((2R)-2-phenyl-2-(1-piperidinyl)acetyl)-2-pyrrolidinyl)-1H-imidazol-5-yl)-2-pyrimidinyl)phenyl)-1H-imidazol-2-yl)ethyl)amino)ethyl)carbamate], the EC50 was 0.001 to 0.999 nM.
With `COC(=O)N[C@@H](C(=O)N1CCC[C@H]1c1ncc(-c2ccc(-c3ncc(-c4cnc([C@@H]5CCCN5C(=O)[C@@H](c5ccccc5)N5CCCCC5)[nH]4)cn3)cc2)[nH]1)c1ccccc1` [Example 152l-3], the EC50 is 0.001 to 0.999 nM.
With `CN(C)[C@@H](C(=O)N1CCC[C@H]1c1ncc(-c2ccc(-c3ccc(-c4cnc([C@@H]5CCCN5C(=O)[C@@H](c5ccccc5)N(C)C)[nH]4)nn3)nn2)[nH]1)c1ccccc1` [Example 153c-1, (1R,1′R)-2,2′-(3,3′-bipyridazine-6,6′-diylbis(1H-imidazole-5,2-diyl(2S)-2,1-pyrrolidinediyl))bis(N,N-dimethyl-2-oxo-1-phenylethanamine)] the figure was 1 to 99 nM; with `COC(=O)N[C@@H](C(=O)N1CCC[C@H]1c1ncc(-c2ccc(-c3ccc(-c4cnc([C@@H]5CCCN5C(=O)[C@H](NC(=O)OC)c5ccccc5)[nH]4)nn3)nn2)[nH]1)c1ccccc1` [Example 153c-2, dimethyl (3,3′-bipyridazine-6,6′-diylbis(1H-imidazole-5,2-diyl(2S)-2,1-pyrrolidinediyl((1R)-2-oxo-1-phenyl-2,1-ethanediyl)))biscarbamate], 1 to 99 nM.
